Data published in patent publication US12297235B2, “Synthetic peptide compounds and methods of use” (REALTA HOLDINGS, LLC, priority 2015, dated 2025).
Where two headings read alike, the source gives them in different places. Square brackets hold non-standard residues; d marks the D form. Ends that are not written are not given here. Peptide text beside a SMILES is read from it. Sar = CNCC(=O)O

Experiments:
[1] = type: biochemical, human; conditions: 0.77 mM peptide in factor B-depleted serum
Protocol: (§1) Peptides were diluted to 0.77 mM in factor B-depleted human sera (Complement Technologies, Inc.) and incubated for 1 hour at 37° C. These peptides were then diluted with GVBS^++ to equal 2.5% serum, of which 0.25 ml was combined with 0.4 ml of GVBS^++ and 0.1 ml of sensitized sheep red blood cells (RBCs) and again incubated for 1 hour at 37° C. The procedure was stopped by the addition of 4.0 ml of GVBS^−− centrifuged for 5 minutes at 1,620×g, and the absorbance of the supernatants was read at 412 nm in a spectrophotometer. The percent lysis of each sample was standardized to that of the serum only control.
(§2) The final concentration of peptide in factor B-depleted serum was 0.77 mM. Each peptide was evaluated in triplicate and the mean values are reported. […] In the hemolytic assay, soluble peptides are standardized to water and insoluble peptides standardized to DMSO.
(§3) Polar Assortant peptides were serially diluted in undiluted factor B-depleted human sera (Complement Technologies, Inc.) and incubated for 1 hour at 37° C. Water, GVBS^++ and DMSO were included as controls. These peptides were then diluted with GVBS^++ to equal 2.5% serum, of which 0.25 ml was combined with 0.4 ml of GVBS^++ and 0.1 ml of sensitized sheep red blood cells (RBCs) and again incubated for 1 hour at 37° C. The procedure was stopped by the addition of 4.0 ml of GVBS^−−, centrifuged for 5 minutes at 1,620×g, and the absorbance of the supernatants was read at 412 nm in a spectrophotometer. The percent lysis of each sample was standardized to that of the serum only control.
(§4) The final concentration of peptide in factor B-depleted serum was 0.77 mM. […] In the hemolytic assay, soluble peptides were standardized to water and insoluble peptides standardized to DMSO.
(§5) The final concentration of peptide in factor B-depleted serum was 0.77 mM. […] In the hemolytic assay, soluble peptides are standardized to water and insoluble peptides standardized to DMSO.

[2] = tested on: complement activation in factor B-depleted human sera; type: biochemical; conditions: factor B-depleted serum
Protocol: as §1, §2, §3, §4, §5

Gardnerella = Gardnerella growth inhibition; type: cell-based
Protocol: The plates were then incubated at 37° C. overnight and then the plates were read on a spectrophotometer at an absorbance of OD600 nm to determine the turbidity of the solution. Decreased turbidity is indicative of inhibition of bacterial growth.
Complement activation was assayed by measuring the production of C5a using ELISA methodology. […] The associated inflammation causes the symptoms of bacterial vaginosis and increases the risk of HIV-transmission by disrupting normal barrier defenses in the vagina.

Solubility in water = type: physicochemical
[3] = standardized to water or DMSO, Table 6

CC[C@H](C)[C@H](N)C(=O)N[C@@H](C)C(=O)N[C@@H](CC(C)C)C(=O)N[C@H](C(=O)N[C@@H](CC(C)C)C(=O)N[C@@H](CCC(=O)O)C(=O)N1CCC[C@H]1C(=O)N[C@H](C(=O)N[C@@H](CS)C(=O)N[C@@H](CS)C(=O)N[C@@H](CCC(N)=O)C(=O)N[C@@H](CCC(=O)O)C(=O)N[C@@H](CCCNC(=N)N)C(=O)N[C@@H](C)C(=O)N[C@@H](C)C(=O)NCCOCCOCCOCCOCCOCCOCCOCCOCCOCCOCCOCCOCCOCCOCCOCCOCCOCCOCCOCCOCCC(=O)O)[C@@H](C)CC)[C@@H](C)CC [PA-dPEG20]
hemolysis [1, 3]: 11.4%

dPEG24-IALILEPICCQERAA-dPEG24 (cysteine pairing not given here) [dPEG24-PA-dPEG24]
Complement inhibition in hemolytic assay [2]: varying degrees of complement inhibition

CC[C@H](C)[C@H](N)C(=O)N[C@@H](C)C(=O)N[C@@H](CC(C)C)C(=O)N[C@H](C(=O)N[C@@H](CC(C)C)C(=O)N[C@@H](CCC(=O)O)C(=O)N1CCC[C@H]1C(=O)N[C@H](C(=O)N[C@@H](CS)C(=O)N[C@@H](CS)C(=O)N[C@@H](CCC(N)=O)C(=O)N[C@@H](CCC(=O)O)C(=O)N[C@@H](CCCNC(=N)N)C(=O)N[C@@H](C)C(=O)N[C@@H](C)C(=O)NCCOCCOCCOCCC(=O)O)[C@@H](C)CC)[C@@H](C)CC [PA-dPEG03]
hemolysis [1, 3]: 12.6%

CC[C@H](C)[C@H](N)C(=O)N[C@@H](C)C(=O)N[C@@H](CC(C)C)C(=O)N[C@H](C(=O)N[C@@H](CC(C)C)C(=O)N[C@@H](CCC(=O)O)C(=O)N1CCC[C@H]1C(=O)N[C@H](C(=O)N[C@@H](CS)C(=O)N[C@@H](CS)C(=O)N[C@@H](CCC(N)=O)C(=O)N[C@@H](CCC(=O)O)C(=O)N[C@@H](CCCNC(=N)N)C(=O)N[C@@H](C)C(=O)N[C@@H](C)C(=O)NCCOCCOCCOCCOCCOCCOCCOCCOCCOCCOCCOCCOCCOCCOCCOCCOCCC(=O)O)[C@@H](C)CC)[C@@H](C)CC [PA-dPEG16]
hemolysis [1, 3]: 12%

CC[C@H](C)[C@H](N)C(=O)N[C@@H](C)C(=O)N[C@@H](CC(C)C)C(=O)N[C@H](C(=O)N[C@@H](CC(C)C)C(=O)N[C@@H](CCC(=O)O)C(=O)N1CCC[C@H]1C(=O)N[C@H](C(=O)N[C@@H](CS)C(=O)N[C@@H](CS)C(=O)N[C@@H](CCC(N)=O)C(=O)N[C@@H](CCC(=O)O)C(=O)N[C@@H](CCCNC(=N)N)C(=O)N[C@@H](C)C(=O)N[C@@H](C)C(=O)O)[C@@H](C)CC)[C@@H](C)CC [PA]
hemolysis ([1]; mean of triplicate, standardized to water (soluble) or DMSO (insoluble)): 3.15%

CC[C@H](C)[C@H](N)C(=O)N[C@@H](C)C(=O)N[C@@H](CC(C)C)C(=O)N[C@H](C(=O)N[C@@H](CC(C)C)C(=O)N[C@@H](CCC(=O)O)C(=O)N1CCC[C@H]1C(=O)N[C@H](C(=O)N[C@@H](CS)C(=O)N[C@@H](CS)C(=O)N[C@@H](CCC(N)=O)C(=O)N[C@@H](CCC(=O)O)C(=O)N[C@@H](CCCNC(=N)N)C(=O)N[C@@H](C)C(=O)N[C@@H](C)C(=O)NCCOCCOCCC(=O)O)[C@@H](C)CC)[C@@H](C)CC [PA-dPEG02]
hemolysis [1, 3]: 11.6%

CC[C@H](C)[C@H](N)C(=O)N[C@@H](C)C(=O)N[C@@H](CC(C)C)C(=O)N[C@H](C(=O)N[C@@H](CC(C)C)C(=O)N[C@@H](CCC(=O)O)C(=O)N1CCC[C@H]1C(=O)N[C@H](C(=O)N[C@@H](CS)C(=O)N[C@@H](CS)C(=O)N[C@@H](CCC(N)=O)C(=O)N[C@@H](CCC(=O)O)C(=O)N[C@@H](CCCNC(=N)N)C(=O)N[C@@H](C)C(=O)N[C@@H](C)C(=O)NCCOCCOCCOCCOCCOCCOCCOCCOCCOCCOCCOCCOCCC(=O)O)[C@@H](C)CC)[C@@H](C)CC [PA-dPEG12]
hemolysis [1, 3]: 11.4%

dPEG24-IALILEPICCQERAA (cysteine pairing not given here) [dPEG24-PA]
Complement inhibition in hemolytic assay [2]: varying degrees of complement inhibition

CC[C@H](C)[C@H](N)C(=O)N[C@@H](C)C(=O)N[C@@H](CC(C)C)C(=O)N(C)CC(=O)N[C@@H](CC(C)C)C(=O)N[C@@H](CCC(=O)O)C(=O)N1CCC[C@H]1C(=O)N[C@H](C(=O)N[C@@H](CS)C(=O)N[C@@H](CS)C(=O)N[C@@H](CCC(N)=O)C(=O)N[C@@H](CCC(=O)O)C(=O)N[C@@H](CCCNC(=N)N)C(=O)N[C@@H](C)C(=O)N[C@@H](C)C(=O)O)[C@@H](C)CC [PA-I4Sar] (H-IAL[Sar]LEPICCQERAA-OH)
Inhibition of Gardnerella growth (Gardnerella): inhibited the growth

CC[C@H](C)[C@H](N)C(=O)N[C@@H](C)C(=O)N[C@@H](CC(C)C)C(=O)N[C@H](C(=O)N(C)CC(=O)N[C@@H](CCC(=O)O)C(=O)N1CCC[C@H]1C(=O)N[C@H](C(=O)N[C@@H](CS)C(=O)N[C@@H](CS)C(=O)N[C@@H](CCC(N)=O)C(=O)N[C@@H](CCC(=O)O)C(=O)N[C@@H](CCCNC(=N)N)C(=O)N[C@@H](C)C(=O)N[C@@H](C)C(=O)O)[C@@H](C)CC)[C@@H](C)CC [PA-L5Sar] (H-IALI[Sar]EPICCQERAA-OH)
Inhibition of Gardnerella growth (Gardnerella): inhibited the growth

CC[C@H](C)[C@H](N)C(=O)N[C@@H](C)C(=O)N[C@@H](CC(C)C)C(=O)N[C@H](C(=O)N[C@@H](CC(C)C)C(=O)N[C@@H](CCC(=O)O)C(=O)N1CCC[C@H]1C(=O)N[C@H](C(=O)N[C@@H](CS)C(=O)N[C@@H](CS)C(=O)N[C@@H](CCC(N)=O)C(=O)N[C@@H](CCC(=O)O)C(=O)N[C@@H](CCCNC(=N)N)C(=O)N[C@@H](C)C(=O)N[C@@H](C)C(=O)NCCOCCOCCOCCOCCC(=O)O)[C@@H](C)CC)[C@@H](C)CC [PA-dPEG04]
hemolysis [1, 3]: 12.4%

CC[C@H](C)[C@H](N)C(=O)N[C@@H](C)C(=O)N[C@@H](CC(C)C)C(=O)N[C@H](C(=O)N[C@@H](CC(C)C)C(=O)N[C@@H](CCC(=O)O)C(=O)N1CCC[C@H]1C(=O)N[C@H](C(=O)N[C@@H](CS)C(=O)N[C@@H](CS)C(=O)N[C@@H](CCC(N)=O)C(=O)N[C@@H](CCC(=O)O)C(=O)N[C@@H](CCCNC(=N)N)C(=O)N[C@@H](C)C(=O)N[C@@H](C)C(=O)NCCOCCOCCOCCOCCOCCOCCOCCOCCC(=O)O)[C@@H](C)CC)[C@@H](C)CC [PA-dPEG08]
hemolysis [1, 3]: 34.7%

CC[C@H](C)[C@H](N)C(=O)N[C@@H](C)C(=O)N[C@@H](CC(C)C)C(=O)N[C@H](C(=O)N[C@@H](CC(C)C)C(=O)N[C@@H](CCC(=O)O)C(=O)N1CCC[C@H]1C(=O)N[C@H](C(=O)N[C@@H](CS)C(=O)N[C@@H](CS)C(=O)N[C@@H](CCC(N)=O)C(=O)N[C@@H](CCC(=O)O)C(=O)N[C@@H](CCCNC(=N)N)C(=O)N[C@@H](C)C(=O)N[C@@H](C)C(=O)NCCOCCOCCOCCOCCOCCOCCC(=O)O)[C@@H](C)CC)[C@@H](C)CC [PA-dPEG06]
hemolysis [1, 3]: 44.8%

CC[C@H](C)[C@H](NC(=O)[C@H](CC(C)C)NC(=O)[C@H](C)N)C(=O)N[C@@H](CC(C)C)C(=O)N[C@@H](CCC(=O)O)C(=O)N1CCC[C@H]1C(=O)N[C@H](C(=O)N[C@@H](CS)C(=O)N[C@@H](CS)C(=O)N(C)CC(=O)N[C@@H](CCC(=O)O)C(=O)N[C@@H](CCCNC(=N)N)C(=O)N[C@@H](C)C(=O)N[C@@H](C)C(=O)O)[C@@H](C)CC [PA-Q11Sar] (H-ALILEPICC[Sar]ERAA-OH; N-terminus and C-terminus assumed)
Solubility in water (Solubility in water; Table 5, sarcosine substitution peptides): No | hemolysis ([1]; human, mean of triplicate, standardized to water (soluble) or DMSO (insoluble)): 3.02%

CC[C@H](C)[C@H](N)C(=O)N[C@@H](C)C(=O)N(C)CC(=O)N[C@H](C(=O)N[C@@H](CC(C)C)C(=O)N[C@@H](CCC(=O)O)C(=O)N1CCC[C@H]1C(=O)N[C@H](C(=O)N[C@@H](CS)C(=O)N[C@@H](CS)C(=O)N[C@@H](CCC(N)=O)C(=O)N[C@@H](CCC(=O)O)C(=O)N[C@@H](CCCNC(=N)N)C(=O)N[C@@H](C)C(=O)N[C@@H](C)C(=O)O)[C@@H](C)CC)[C@@H](C)CC [PA-L3Sar] (H-IA[Sar]ILEPICCQERAA-OH)
Inhibition of Gardnerella growth (Gardnerella): inhibited the growth

CC[C@H](C)[C@H](N)C(=O)N[C@@H](C)C(=O)N[C@@H](CC(C)C)C(=O)N[C@H](C(=O)N[C@@H](CC(C)C)C(=O)N[C@@H](CCC(=O)O)C(=O)N(C)CC(=O)N[C@H](C(=O)N[C@@H](CS)C(=O)N[C@@H](CS)C(=O)N[C@@H](CCC(N)=O)C(=O)N[C@@H](CCC(=O)O)C(=O)N[C@@H](CCCNC(=N)N)C(=O)N(C)CC(=O)N[C@@H](C)C(=O)O)[C@@H](C)CC)[C@@H](C)CC [Peptide A14SarP7Sar, IALILE(Sar)ICCQER(Sar)A] (H-IALILE[Sar]ICCQER[Sar]A-OH; N-terminus and C-terminus assumed)
Solubility in water (Solubility in water; Table 7, PEGylated and Sar/Ala substitution peptides): Yes
